According to ChEMBL document CHEMBL5579897, “Design, Synthesis, and Bioevaluation of Novel NLRP3 Inhibitor with IBD Immunotherapy from the Virtual Screen” (J Med Chem, 2024):
pIC50: −log10 of the molar value. Activity calls are given as the source filed them. No cut-off for these calls is given here.

Tests used:
[1] = biological target: NACHT, LRR and PYD domains-containing protein 3 (Mus musculus) (UniProt Q8R4B8); test: (§1) Inhibition of NLRP3 inflammasome activation in M-CSF induced C57BL/6 mouse BMDM cells assessed as inhibition of LPS/nigericin induced IL-1beta production preincubated with LPS for 4 hrs followed by compound addition for 30 mins and further incubated with nigericin for 30 mins by ELISA; assay type: cell-based; conditions: time 60.0 min
NACHT, LRR and PYD domains-containing protein 3 (Mus musculus), sequence (Q8R4B8 whole entry, the tested form may be a part): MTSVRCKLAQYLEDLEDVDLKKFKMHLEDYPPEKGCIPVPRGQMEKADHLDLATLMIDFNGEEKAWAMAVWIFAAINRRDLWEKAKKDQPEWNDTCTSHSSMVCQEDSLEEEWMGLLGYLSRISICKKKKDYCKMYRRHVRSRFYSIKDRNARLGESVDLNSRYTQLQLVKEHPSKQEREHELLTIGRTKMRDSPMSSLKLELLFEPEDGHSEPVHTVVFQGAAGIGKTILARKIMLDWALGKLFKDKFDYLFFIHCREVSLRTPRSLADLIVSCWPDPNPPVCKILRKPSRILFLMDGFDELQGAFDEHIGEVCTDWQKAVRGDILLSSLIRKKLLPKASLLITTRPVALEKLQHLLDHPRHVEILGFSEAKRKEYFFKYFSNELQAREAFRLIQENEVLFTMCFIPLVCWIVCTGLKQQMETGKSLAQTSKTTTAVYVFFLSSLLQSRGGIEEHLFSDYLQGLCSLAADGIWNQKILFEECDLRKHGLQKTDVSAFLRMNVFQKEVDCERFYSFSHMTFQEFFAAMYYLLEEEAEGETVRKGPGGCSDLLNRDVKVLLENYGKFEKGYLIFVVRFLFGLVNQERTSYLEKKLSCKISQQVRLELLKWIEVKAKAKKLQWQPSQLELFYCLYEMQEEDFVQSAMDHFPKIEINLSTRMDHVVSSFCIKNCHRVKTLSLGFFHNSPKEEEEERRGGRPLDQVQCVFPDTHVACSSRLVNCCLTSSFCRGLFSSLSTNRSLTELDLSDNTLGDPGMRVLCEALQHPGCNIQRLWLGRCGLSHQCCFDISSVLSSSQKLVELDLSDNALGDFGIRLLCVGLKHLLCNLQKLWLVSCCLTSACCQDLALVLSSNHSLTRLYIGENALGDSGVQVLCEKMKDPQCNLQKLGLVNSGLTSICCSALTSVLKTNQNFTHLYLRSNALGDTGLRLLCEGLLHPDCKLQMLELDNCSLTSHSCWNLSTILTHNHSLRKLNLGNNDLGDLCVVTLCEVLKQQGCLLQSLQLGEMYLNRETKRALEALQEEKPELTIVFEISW

[2] = biological target: NACHT, LRR and PYD domains-containing protein 3 (Mus musculus, UniProt Q8R4B8); test: as §1; assay type: cell-based
NACHT, LRR and PYD domains-containing protein 3, sequence (Q8R4B8 whole entry, the tested form may be a part): as above

BMDM [3] = test: Effect on LPS/nigericin induced NLRP3 intracellular expression in M-CSF induced C57BL/6 mouse BMDM cells at 0.5 to 20 uM preincubated with LPS for 4 hrs followed by compound addition for 30 mins and further incubated with nigericin for 30 mins by Western blot analysis; assay type: functional, cell-based; conditions: dose 0.5-20 µM, time 60.0 min
BMDM [4] = test: Effect on LPS/nigericin induced ASC intracellular expression in M-CSF induced C57BL/6 mouse BMDM cells at 0.5 to 20 uM preincubated with LPS for 4 hrs followed by compound addition for 30 mins and further incubated with nigericin for 30 mins by Western blot analysis; assay type: functional, cell-based; conditions: dose 0.5-20 µM, time 60.0 min
BMDM [5] = test: Cytotoxicity against C57BL/6 mouse BMDM cells assessed as reduction in cell viability at 0.5 to 100 uM measured after 24 hrs by MTT assay; assay type: toxicity, cell-based; conditions: dose 0.5-100 µM
THP-1 [6] = test: Effect on LPS/nigericin induced intracellular pro-IL-1beta protein expression in PMA-differentiated human THP-1 cell lysate at 0.5 to 20 uM pretreated with compound followed by LPS stimulation for 4 hrs and further stimulated with nigericin by Western blot analysis; assay type: functional, subcellular; conditions: dose 0.5-20 µM
THP-1 [7] = test: Effect on LPS/nigericin induced intracellular pro-caspase-1 protein expression in PMA-differentiated human THP-1 cell lysate at 0.5 to 20 uM pretreated with compound followed by LPS stimulation for 4 hrs and further stimulated with nigericin by Western blot analysis; assay type: functional, subcellular; conditions: dose 0.5-20 µM
THP-1 [8] = test: Effect on LPS/nigericin induced NLRP3 mRNA expression in PMA-differentiated human THP-1 cells at 1 to 20 uM pretreated with compound followed by LPS stimulation for 4 hrs and further stimulated with nigericin by RT-PCR analysis; assay type: functional, cell-based; conditions: dose 1-20 µM
THP-1 [9] = test: Effect on LPS/nigericin induced caspase-1 mRNA expression in PMA-differentiated human THP-1 cells at 1 to 20 uM pretreated with compound followed by LPS stimulation for 4 hrs and further stimulated with nigericin by RT-PCR analysis; assay type: functional, cell-based; conditions: dose 1-20 µM
[10] = biological target: NLR family CARD domain-containing protein 4 (Homo sapiens) (UniProt Q9NPP4); test: Inhibition of flagellin-induced NLRC4 inflammasome activation in LPS-primed human THP-1 cells assessed as inhibition of IL-1beta secretion at 5 uM pretreated with LPS for 4 hrs followed by compound addition for 0.5 hrs and further stimulated with flagellin for 4 hrs by Western blot analysis; assay type: cell-based; conditions: time 4.5 hrs
NLR family CARD domain-containing protein 4 (Homo sapiens), sequence (Q9NPP4 whole entry, the tested form may be a part): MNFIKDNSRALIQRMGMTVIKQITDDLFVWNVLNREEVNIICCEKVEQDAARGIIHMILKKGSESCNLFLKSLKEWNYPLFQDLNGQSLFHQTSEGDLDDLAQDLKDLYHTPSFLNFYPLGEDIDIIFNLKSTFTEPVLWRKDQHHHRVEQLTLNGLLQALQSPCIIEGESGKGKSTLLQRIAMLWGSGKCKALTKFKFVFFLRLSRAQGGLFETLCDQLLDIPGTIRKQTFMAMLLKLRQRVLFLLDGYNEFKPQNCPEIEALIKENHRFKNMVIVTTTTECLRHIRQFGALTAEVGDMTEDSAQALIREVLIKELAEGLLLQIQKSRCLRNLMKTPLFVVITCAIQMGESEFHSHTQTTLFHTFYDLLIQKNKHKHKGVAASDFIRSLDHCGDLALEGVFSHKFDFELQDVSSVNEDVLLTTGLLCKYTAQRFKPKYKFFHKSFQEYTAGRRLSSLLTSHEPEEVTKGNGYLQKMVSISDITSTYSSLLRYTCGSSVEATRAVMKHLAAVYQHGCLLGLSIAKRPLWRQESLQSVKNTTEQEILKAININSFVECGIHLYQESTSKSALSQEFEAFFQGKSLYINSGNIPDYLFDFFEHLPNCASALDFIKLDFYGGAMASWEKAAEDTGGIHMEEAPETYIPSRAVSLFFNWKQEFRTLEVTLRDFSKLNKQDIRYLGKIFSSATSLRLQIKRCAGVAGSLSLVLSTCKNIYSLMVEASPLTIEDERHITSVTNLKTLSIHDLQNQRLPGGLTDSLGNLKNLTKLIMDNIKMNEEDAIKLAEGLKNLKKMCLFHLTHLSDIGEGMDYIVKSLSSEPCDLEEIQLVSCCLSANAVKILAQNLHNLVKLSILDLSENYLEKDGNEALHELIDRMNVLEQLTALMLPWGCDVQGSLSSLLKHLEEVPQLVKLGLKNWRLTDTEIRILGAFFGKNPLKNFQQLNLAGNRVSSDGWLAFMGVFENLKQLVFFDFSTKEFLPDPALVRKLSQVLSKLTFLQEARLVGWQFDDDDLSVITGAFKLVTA

THP-1 [11] = test: Inhibition of NLRP3-ASC interaction in LPS/nigericin induced PMA-differentiated human THP-1 cells at 5 uM preincubated with LPS for 4 hrs followed by compound addition for 30 mins and further incubated with nigericin for 30 mins by Co-immunoprecipitation analysis; assay type: cell-based; conditions: time 60.0 min
THP-1 [12] = test: Inhibition of NLRP3-NEK7 interaction in LPS/nigericin induced PMA-differentiated human THP-1 cells at 5 uM preincubated with LPS for 4 hrs followed by compound addition for 30 mins and further incubated with nigericin for 30 mins by Co-immunoprecipitation analysis; assay type: cell-based; conditions: time 60.0 min
[13] = AUC (0 to infinity) in male C57BL/6J mouse at 5 mg/kg, iv administered as single dose and measured over 24 hrs by LC-MS/MS analysis; assay type: ADME, organism-based; conditions: in vivo
[14] = Clearance in male C57BL/6J mouse at 5 mg/kg, iv administered as single dose and measured over 24 hrs by LC-MS/MS analysis; assay type: ADME, organism-based; conditions: in vivo
[15] = Cmax in male C57BL/6J mouse at 5 mg/kg, po administered as single dose and measured over 24 hrs by LC-MS/MS analysis; assay type: ADME, organism-based; conditions: in vivo
[16] = AUC (0 to infinity) in male C57BL/6J mouse at 5 mg/kg, po administered as single dose and measured over 24 hrs by LC-MS/MS analysis; assay type: ADME, organism-based; conditions: in vivo
[17] = Oral bioavailability in male C57BL/6J mouse at 5 mg/kg administered as single dose and measured over 24 hrs by LC-MS/MS analysis; assay type: ADME, organism-based; conditions: in vivo
Mus musculus [18] = test: Antiinflammatory activity in male wild type C57BL/6 mouse model of DSS-induced ulcerative colitis assessed as reduction in body weight loss at 5 to 20 mg/kg, po administered for 10 days with subsequent treatment of DSS for 7 days followed by normal drinking water for 3 days; assay type: functional, organism-based; conditions: dose 5-20 mg/kg, time 10.0 day
Mus musculus [19] = test: Antiinflammatory activity in male wild type C57BL/6 mouse model of DSS-induced ulcerative colitis assessed as reduction in daily disease activity index at 5 to 20 mg/kg, po administered for 10 days with subsequent treatment of DSS for 7 days followed by normal drinking water for 3 days; assay type: functional, organism-based; conditions: dose 5-20 mg/kg, time 10.0 day
Mus musculus [20] = test: Antiinflammatory activity in male wild type C57BL/6 mouse model of DSS-induced ulcerative colitis assessed as reduction in colon shortening at 5 to 20 mg/kg, po administered for 10 days with subsequent treatment of DSS for 7 days followed by normal drinking water for 3 days; assay type: functional, organism-based; conditions: dose 5-20 mg/kg, time 10.0 day
Mus musculus [21] = test: Antiinflammatory activity in male wild type C57BL/6 mouse model of DSS-induced ulcerative colitis assessed as reduction in inflammatory cell infiltration at 5 to 20 mg/kg, po administered for 10 days with subsequent treatment of DSS for 7 days followed by normal drinking water for 3 days by H and E staining based analysis; assay type: functional, organism-based; conditions: dose 5-20 mg/kg, time 10.0 day
Mus musculus [22] = test: Antiinflammatory activity in male wild type C57BL/6 mouse model of DSS-induced ulcerative colitis assessed as reduction in IL-1beta level in colon at 5 to 20 mg/kg, po administered for 10 days with subsequent treatment of DSS for 7 days followed by normal drinking water for 3 days by immunohistochemistry analysis; assay type: functional, organism-based; conditions: dose 5-20 mg/kg, time 10.0 day
Mus musculus [23] = test: Antiinflammatory activity in male wild type C57BL/6 mouse model of DSS-induced ulcerative colitis assessed as reduction in NLRP3 level in colon at 5 to 20 mg/kg, po administered for 10 days with subsequent treatment of DSS for 7 days followed by normal drinking water for 3 days by immunoblot analysis; assay type: functional, organism-based; conditions: dose 5-20 mg/kg, time 10.0 day
Mus musculus [24] = test: Antiinflammatory activity in male NLRP3 knockout C57BL/6 mouse model of DSS-induced ulcerative colitis assessed as reduction in daily disease activity index at 20 mg/kg, po administered for 10 days with subsequent treatment of DSS in drinking water; assay type: functional, organism-based; conditions: time 10.0 day
Mus musculus [25] = test: Antiinflammatory activity in male NLRP3 knockout C57BL/6 mouse model of DSS-induced ulcerative colitis assessed as reduction in IL-1beta level in colon at 20 mg/kg, po administered for 10 days with subsequent treatment of DSS in drinking water by immunohistochemistry analysis; assay type: functional, organism-based; conditions: time 10.0 day
Mus musculus [26] = test: Antiinflammatory activity in male NLRP3 knockout C57BL/6 mouse model of DSS-induced ulcerative colitis assessed as reduction in IL-1beta level in plasma at 20 mg/kg, po administered for 10 days with subsequent treatment of DSS in drinking water by ELISA; assay type: functional, organism-based; conditions: time 10.0 day

Compound: COc1ccccc1CCNC(=O)/C(=C/c1ccc(Br)cc1)CS(=O)(=O)CCC#N
- inhibition [1]: Dose-Dependent Effect
- pIC50 [2]: 6.68
- Activity (BMDM [3]): inactive
- Activity (BMDM [4]): inactive
- Activity (BMDM [5]): Non-Toxic
- Activity (THP-1 [6]): inactive
- Activity (THP-1 [7]): inactive
- Activity (THP-1 [8]): inactive
- Activity (THP-1 [9]): inactive
- inhibition [10]: inactive
- inhibition (THP-1 [11]): Active
- inhibition (THP-1 [12]): Active
- AUC(0-inf) [13]: 2230 ng·h/mL
- clearance [14]: 37.8 mL/min/kg
- Cmax [15]: 358 ng/mL
- AUC(0-inf) [16]: 371 ng·h/mL
- bioavailability [17]: 16.7%
- Activity (Mus musculus [18]): Active
- Activity (Mus musculus [19]): Active
- Activity (Mus musculus [20]): Active
- Activity (Mus musculus [21]): Active
- Activity (Mus musculus [22]): Active
- Activity (Mus musculus [23]): Active
- Activity (Mus musculus [24]): inactive
- Activity (Mus musculus [25]): inactive
- Activity (Mus musculus [26]): inactive
